# Results as given in patent publication US20170233413A1, “SUBSTITUTED ANNULATED PYRIMIDINES AND USE THEREOF” (Bayer Pharma Aktiengesellschaft, priority 2014, published 2017).
# Tests used:
# [1] = target: T1, human phosphodiesterase 5 (PDE 5) (Homo sapiens, UniProt O76074); assay: Inhibition of human phosphodiesterase 5 (PDE 5); type: biochemical; details: PDE 5 preparation from human platelets; in some cases means of individual determinations
# T1 construct: PDE 5 preparations are obtained from human platelets by disruption; from tissue; host or cells: human platelets
# Procedure, shortened: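 Enzyme partially purified from human platelets by Mono Q ion exchange, diluted so that under 70% of substrate converts. [8-3H]cGMP at 0.025 μCi per well in Tris pH 7.5 with MgCl2/EDTA, 60 min at room temperature, yttrium SPA bead read-out. Final compound concentrations 4–0.0018 μM; IC50 from concentration–inhibition plot.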
# [2] = target: T2, recombinant guanylate cyclase reporter cell line (Rattus norvegicus, UniProt P19686+P20595); assay: Effect on a recombinant guanylate cyclase reporter cell line; type: cell-based; details: MEC = minimum effective concentration; in some cases means of individual determinations
# T2 construct: expressed in transfected cells
# T2 sequence (P19686 1-690): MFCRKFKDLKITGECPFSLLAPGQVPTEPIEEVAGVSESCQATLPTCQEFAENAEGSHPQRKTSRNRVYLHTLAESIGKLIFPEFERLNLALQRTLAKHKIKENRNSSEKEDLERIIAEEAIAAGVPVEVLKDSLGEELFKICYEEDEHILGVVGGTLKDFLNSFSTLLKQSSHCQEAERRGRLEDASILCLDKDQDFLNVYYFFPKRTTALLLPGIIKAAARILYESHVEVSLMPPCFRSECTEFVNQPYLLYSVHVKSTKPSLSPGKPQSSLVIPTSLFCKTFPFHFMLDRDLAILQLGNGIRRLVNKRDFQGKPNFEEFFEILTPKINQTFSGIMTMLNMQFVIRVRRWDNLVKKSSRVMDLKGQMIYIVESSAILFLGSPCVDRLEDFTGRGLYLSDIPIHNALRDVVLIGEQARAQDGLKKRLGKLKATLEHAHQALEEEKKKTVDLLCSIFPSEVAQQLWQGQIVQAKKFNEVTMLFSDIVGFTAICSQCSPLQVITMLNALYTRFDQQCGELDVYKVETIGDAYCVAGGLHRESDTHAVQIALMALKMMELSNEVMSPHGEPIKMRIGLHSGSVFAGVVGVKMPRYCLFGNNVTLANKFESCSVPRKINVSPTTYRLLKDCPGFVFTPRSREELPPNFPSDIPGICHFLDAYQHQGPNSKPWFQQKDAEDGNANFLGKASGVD
# T2 sequence (P20595 1-619): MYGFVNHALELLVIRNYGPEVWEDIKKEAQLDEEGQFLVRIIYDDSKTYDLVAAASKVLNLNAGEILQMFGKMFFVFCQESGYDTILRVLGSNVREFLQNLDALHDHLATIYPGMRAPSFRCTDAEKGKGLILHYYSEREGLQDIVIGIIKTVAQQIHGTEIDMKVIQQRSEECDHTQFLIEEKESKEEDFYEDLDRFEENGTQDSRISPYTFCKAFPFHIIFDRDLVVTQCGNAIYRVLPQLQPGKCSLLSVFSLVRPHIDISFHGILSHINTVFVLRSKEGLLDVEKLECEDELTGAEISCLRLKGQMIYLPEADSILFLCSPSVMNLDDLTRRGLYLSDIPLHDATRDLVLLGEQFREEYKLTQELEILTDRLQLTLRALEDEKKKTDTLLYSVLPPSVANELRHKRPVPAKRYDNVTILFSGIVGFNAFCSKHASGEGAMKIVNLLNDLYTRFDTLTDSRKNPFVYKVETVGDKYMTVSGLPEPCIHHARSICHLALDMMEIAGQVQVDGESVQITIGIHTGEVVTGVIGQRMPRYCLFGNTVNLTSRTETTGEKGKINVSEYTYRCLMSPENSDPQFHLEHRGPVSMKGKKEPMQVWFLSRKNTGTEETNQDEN
# Procedure, shortened: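 Cellular activity measured in a recombinant rat soluble guanylate cyclase reporter cell line. Values are minimum effective concentration (MEC), some given as means of individual determinations.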
IC50 [1],MEC [2],SMILES
73 nM,0.3 µM,"CC1(C)C(=O)Nc2nc(-c3nn(Cc4ccccc4F)c4ncccc34)nc(C(=O)Nc3cncc(F)c3)c21 [Example 107, 2-[1-(2-fluorobenzyl)-1H-pyrazolo[3,4-b]pyridin-3-yl]-N-(5-fluoropyridin-3-yl)-5,5-dimethyl-6-oxo-6,7-dihydro-5H-pyrrolo[2,3-d]pyrimidine-4-carboxamide]"
10 nM,0.3 µM,"Cc1ccncc1NC(=O)c1nc(-c2nn(Cc3ccccc3F)c3ncccc23)nc2c1C(C)(C)C(=O)N2 [Example 119, 2-[1-(2-fluorobenzyl)-1H-pyrazolo[3,4-b]pyridin-3-yl]-5,5-dimethyl-N-(4-methylpyridin-3-yl)-6-oxo-6,7-dihydro-5H-pyrrolo[2,3-d]pyrimidine-4-carboxamide]"
24 nM,0.3 µM,"Cn1ccc(NC(=O)c2nc(-c3nn(Cc4ccccc4F)c4ncccc34)nc3c2C(C)(C)C(=O)N3)n1 [Example 70, 2-[1-(2-fluorobenzyl)-1H-pyrazolo[3,4-b]pyridin-3-yl]-5,5-dimethyl-N-(1-methyl-1H-pyrazol-3-yl)-6-oxo-6,7-dihydro-5H-pyrrolo[2,3-d]pyrimidine-4-carboxamide]"
68 nM,0.3 µM,"Cc1ccc(NC(=O)c2nc(-c3nn(Cc4ccccc4F)c4ncccc34)nc3c2C(C)(C)C(=O)N3)cn1 [Example 91, 2-[1-(2-fluorobenzyl)-1H-pyrazolo[3,4-b]pyridin-3-yl]-5,5-dimethyl-N-(6-methylpyridin-3-yl)-6-oxo-6,7-dihydro-5H-pyrrolo[2,3-d]pyrimidine-4-carboxamide]"

# The remaining lines, values behind:
SMILES,IC50 [1],MEC [2]
"Cc1nc2c(cc1F)c(-c1nc3c(c(C(N)=O)n1)C(C)(C(F)(F)F)C(=O)N3)nn2Cc1ncccc1F (single isomer, unassigned; ent-2) [Example 20, ent-2-{5-Fluoro-1-[(3-fluoropyridin-2-yl)methyl]-6-methyl-1H-pyrazolo[3,4-b]pyridin-3-yl}-5-methyl-6-oxo-5-(trifluoromethyl)-6,7-dihydro-5H-pyrrolo[2,3-d]pyrimidine-4-carboxamide (enantiomer B)]",190 nM,1 µM
"Cc1nc2c(cc1F)c(-c1nc3c(c(C(N)=O)n1)C(C)(C)C(=O)N3)nn2Cc1ncccc1F [Example 7, 2-{5-Fluoro-1-[(3-fluoropyridin-2-yl)methyl]-6-methyl-1H-pyrazolo[3,4-b]pyridin-3-yl}-5,5-dimethyl-6-oxo-6,7-dihydro-5H-pyrrolo[2,3-d]pyrimidine-4-carboxamide]",130 nM,3 µM
CN(C(=O)c1nc(-c2nn(Cc3ccccc3F)c3cc(Cl)ccc23)nc2c1C(C)(C)C(=O)N2)C1CC1 [Example 46],1000 nM,0.03 µM
Cc1nc2c(cc1F)c(-c1nc3c(c(C(=O)N(C)CC4CC4)n1)C(C)(C)C(=O)N3)nn2Cc1cccc(F)c1F [Example 38],770 nM,0.01 µM
"CC1(C)C(=O)Nc2nc(-c3nn(Cc4ccccc4F)c4ncccc34)nc(C(=O)NCC3CC3)c21 [Example 84, N-(cyclopropylmethyl)-2-[1-(2-fluorobenzyl)-1H-pyrazolo[3,4-b]pyridin-3-yl]-5,5-dimethyl-6-oxo-6,7-dihydro-5H-pyrrolo[2,3-d]pyrimidine-4-carboxamide]",23 nM,0.1 µM
"CC1(C)C(=O)Nc2nc(-c3nn(Cc4ccccc4F)c4ncccc34)nc(C(=O)NCC3CCCC3)c21 [Example 92, N-(cyclopentylmethyl)-2-[1-(2-fluorobenzyl)-1H-pyrazolo[3,4-b]pyridin-3-yl]-5,5-dimethyl-6-oxo-6,7-dihydro-5H-pyrrolo[2,3-d]pyrimidine-4-carboxamide]",35 nM,0.3 µM
"Cc1nc2c(cc1F)c(-c1nc3c(c(C(N)=O)n1)C(C)(C)C(=O)N3)nn2Cc1ccccc1F [Example 5, 2-[5-Fluoro-1-(2-fluorobenzyl)-6-methyl-1H-pyrazolo[3,4-b]pyridin-3-yl]-5,5-dimethyl-6-oxo-6,7-dihydro-5H-pyrrolo[2,3-d]pyrimidine-4-carboxamide]",86 nM,0.3 µM
